Reference: ChEMBL document CHEMBL2029321, “Identification of chalcones as potent and selective PDE5A1 inhibitors” (Bioorg Med Chem Lett, 2012)

Key:
[1] = biological target: cGMP-specific 3',5'-cyclic phosphodiesterase (Homo sapiens) (UniProt O76074); assay: Inhibition of PDE5A1 at 10 ug/mL
[2] = Inhibition of rabbit corpus cavernosum PDE6; design: species or system Oryctolagus cuniculus
[3] = biological target: Phosphodiesterase 4 (Homo sapiens, UniProt P27815+Q08499+Q07343+Q08493); assay: Inhibition of human neutrophil PDE4; type: protein assay
[4] = biological target: cGMP-specific 3',5'-cyclic phosphodiesterase (Bos taurus, UniProt Q28156); assay: Inhibition of bovine platelet PDE5

Row | Structure (SMILES) | inhibition [1] [%] | IC50 [2] [µM] | IC50 [3] [µM] | IC50 [4] [µM]
1 | COc1ccc(OC)c(/C=C/C(=O)c2ccc(Cl)cc2)c1 | 8.1 |  |  | 
2 | COc1ccc(C2CNC(=O)C2)cc1OC1CCCC1 (configuration not stated) [ROLIPRAM] |  | > 10 |  | 
3 | COc1ccc(C(=O)/C=C/c2ccccc2OC)c(OC)c1 | 43.1 |  |  | 
4 | COc1ccc(OC)c(/C=C/C(=O)c2cc(OC)c(OC)cc2CCNC(C)=O)c1 | 47.4 |  |  | 
5 | COc1ccc(OC)c(/C=C/C(=O)c2ccc(OC)cc2OC)c1 | 58.7 | > 10 | 4.9 | 6
6 | CCCc1nn(C)c2c(=O)[nH]c(-c3cc(S(=O)(=O)N4CCN(C)CC4)ccc3OCC)nc12 |  | 0.1 |  | 
7 | COc1ccc(OC)c(/C=C/C(=O)c2ccc(SC)cc2)c1 | 26.6 |  |  | 
8 | COc1ccc(OC)c(/C=C/C(=O)c2cc(OC)c(C)cc2OC)c1 | 20.2 |  |  | 
9 | COc1ccc(/C=C/C(=O)c2cc(Cl)ccc2OC)cc1OC | 3.5 |  |  | 
10 | COc1ccc(/C=C/C(=O)c2c(OCc3ccccc3)cc(OC)c(OC)c2OC)cc1OC | 77.7 | > 10 | 2.3 | 5.9
11 | COc1cc(CCNC(C)=O)c(C(=O)/C=C/c2cccc(OC)c2OC)cc1OC | 27.7 |  |  | 
12 | COc1ccc(OC)c(C(=O)/C=C/c2cc(OC)c(C)cc2OC)c1 | 24.9 |  |  | 
13 | COc1ccc(C(=O)/C=C/c2cc(Cl)ccc2Cl)c(OC)c1 | 39.5 |  |  | 
14 | COc1ccccc1/C=C/C(=O)c1cc(OC)c(OC)cc1CCNC(C)=O | 19.9 |  |  | 
15 | COc1ccc(OC)c(/C=C/C(=O)c2ccc(OC)c(OC)c2)c1 | 47.3 |  |  | 
16 | COc1ccc(C(=O)/C=C/c2ccc(OC)c(OC)c2)c(O)c1 | 23.8 |  |  | 
17 | COc1ccc(/C=C/C(=O)c2cc(OC)c(OC)cc2CCNC(C)=O)c(OC)c1 | 45.5 |  |  | 
18 | COc1ccc(C(=O)/C=C/c2cc(OC)c(OC)cc2OC)c(OC)c1 | 65.9 | > 10 | > 10 | 1.8
19 | CCCOc1ccccc1-c1nc2[nH]nnc2c(=O)[nH]1 [ZAPRINAST] |  | 0.4 |  | 
20 | COc1ccc(OC)c(C(=O)/C=C/c2ccc(OC)c(OC)c2)c1 | 66.1 | > 10 | 8.2 | 7

Results, then the compound that gave them:

Row | inhibition [1] [%] | IC50 [2] [µM] | IC50 [3] [µM] | IC50 [4] [µM] | Structure (SMILES)
21 | 45.5 |  |  |  | COc1ccc(OC)c(/C=C/C(=O)c2c3c(c(OC)c4c2OCO4)CN(C)CC3)c1
22 | 25.6 |  |  |  | COc1ccc(/C=C/C(=O)c2cc(OC)ccc2OC)cc1
23 | 7.2 |  |  |  | COC(=O)C[N+]1(C)CCc2c(cc3c(c2C(=O)/C=C/c2cc(OC)ccc2OC)OCO3)C1 (configuration not stated)
24 | 64.8 | > 10 | > 10 | 6.2 | COc1cccc(/C=C/C(=O)c2c3c(c(OC)c4c2OCO4)CN(C)CC3)c1
25 | 31.8 |  |  |  | COc1ccc(/C=C/C(=O)c2c3c(c(OC)c4c2OCO4)CN(C)CC3)cc1
26 | 35.1 |  |  |  | COc1ccc(/C=C/C(=O)c2c3c(c(OC)c4c2OCO4)CN(C)CC3)c(OC)c1
27 | 46.7 |  |  |  | COc1ccc(C(=O)/C=C/c2cccc(OC)c2OC)c(OC)c1
28 | 8.17 |  |  |  | COc1c2c(c(C(=O)/C=C/c3ccc(Cl)cc3Cl)c3c1OCO3)CCN(C)C2
29 | 43.9 |  |  |  | COc1cccc(/C=C/C(=O)c2c3c(c(OC)c4c2OCO4)CN(C)CC3)c1OC
30 | 35.7 |  |  |  | COc1ccc(/C=C/C(=O)c2c(O)cc(OC)c(OC)c2OC)c(OC)c1
31 | 37.1 |  |  |  | COc1ccc(/C=C/C(=O)c2c3c(c(OC)c4c2OCO4)CN(C)CC3)c(OC)c1OC
32 | 18.3 |  |  |  | COC(=O)C[N+]1(C)CCc2c(c(OC)c3c(c2C(=O)/C=C/c2ccc(OC)cc2OC)OCO3)C1 (configuration not stated)
